This note sets out measurements from patent US20110044938A1 (NYCOMED GMBH, priority 2006, published 2011).

The structures appear in SMILES notation.

Experiment [1] deals with RKO (RKOp27) human colon adenocarcinoma cells. As to the kind of experiment: Alamar Blue cell viability assay, anti-proliferative/cytotoxic activity on proliferating RKO subclones. Conditions: RKOp27, 72 h, RKO p27 uninduced (proliferating) cells, value = class bound given in Table A, read-out: −logIC50 RKO p27 uninduced (proliferating) (converted). The experiment is classed as cell-based. The procedure: The anti-proliferative/cytotoxic activity of the compounds described herein, can be tested on subclones of RKO (RKOp27) human colon adenocarcinoma cells (Schmidt et al., Oncogene 19, 2423-2429; 2000) using the Alamar Blue cell viability assay (described in O'Brien et al. Eur J Biochem 267, 5421-5426, 2000). The compounds are dissolved as 20 mM solutions in dimethylsulfoxide (DMSO) and subsequently diluted in semi-logarithmic steps. DMSO dilutions are further diluted 1:100 into Dulbecco's modified Eagle's medium (DMEM) containing 10% fetal calf serum to a final concentration twice as much as the final concentration in the test. RKO subclones are seeded into 96 well flat bottom plates at a density of 5000 cells per well in a volume of 50 μl per well. 24 hours after seeding the 50 μl each of the compound dilutions in DMEM medium are added into each well of the 96 Well plate. Each compound dilution is tested as quadruplicates. Wells containing untreated control cells are filled with 50 μl DMEM medium containing 1% DMSO. The cells are then incubated with the substances for 72 hours at 37° C. in a hunified atmosphere containing 5% carbon dioxide. To determine the viability of the cells, 10 μl of an Alamar Blue solution (Biosource) are added and the fluorescence is measured at an extinction of 544 nm and an emission of 590 nm. For the calculation of the cell viability the emission value from untreated cells is set as 100% viability and the emission rates of treated cells are set in relation to the values of untreated cells. Viabilities are expressed as % values.
The corresponding IC50 values of the compounds for anti-proliferative/cytotoxic activity are determined from the concentration-effect curves.
(§1) Representative −log IC50 [mol/l] values for anti-proliferation/cytotoxicity determined in the mentioned assays follow from the following table A, in which the numbers of the compound correspond to the numbers of the examples.

Experiment [2] relates to subclones of RKO colon adenocarcinoma cells (RKOp27 or RKOp21) arrested by Ponasterone A. Nature of the experiment: Alamar Blue cell viability assay, cell cycle specific mode of action: cells arrested by ectopic p27Kip1 induced by Ponasterone A versus proliferating cells. The settings on record: Homo sapiens, RKO p27 induced (arrested) cells, 10 μM Ponasterone A, 72 hours, value = class bound given in Table A, read-out: −logIC50 RKO p27 induced (arrested) (converted). In kind it is cell-based. As for the experimental part:
To determine the cell cycle specific mode of action, subclones of RKO colon adenocarcinoma cells (RKOp27 or RKOp21 as described by Schmidt et al. in Oncogene 19, 2423-2429; 2000) are seeded into 96 well flat bottom plates at a density of 15000 cells per well in a volume of 50 μl per well in DMEM growth medium with 10% FCS containing 10 μM Ponasterone A. 24 hours after seeding the 50 μl each of the compound dilutions in DMEM medium are added into each well of the 96 Well plate. Each compound dilution is tested as quadruplicates. Wells containing untreated control cells are filled with 50 μl DMEM medium containing 1% DMSO. The cells are then incubated with the substances for 72 hours at 37° C. in a humidified athmosphere containing 5% carbon dioxide. To determine the viability of the cells, 10 μl of an Alamar Blue solution (Biosource) are added and the fluorescence was measured at an extinction of 544 nm and an emission of 590 nm. For the calculation of the cell viability the emission value from untreated cells is set as 100% viability and the emission rates of treated cells are set in relation to the values of untreated cells. Viabilities are expressed as % values. Viability is compared of proliferating cells grown in the absence of the inducer Ponasterone A, versus viability of cells arrested by the expression of ectopic p27Kip1 induced by Ponasterone A.
as §1
(Resazurin is reduced to fluorescent resorufin, in cell work by metabolically active cells.)

Regarding `CCOc1ccccc1CCC(=O)Nc1sc2c(c1C#N)CCC(COC(=O)NCc1cn(C)cn1)C2` (centres unmarked) [Example 178, (1-Methyl-1H-imidazol-4-ylmethyl)-carbamic acid 3-cyano-2-[3-(2-ethoxy-phenyl)-propanoylamino]-4,5,6,7-tetrahydro-benzo[b]thiophen-6-ylmethyl ester], the IC50 was at most 0.501 µM in experiment [1] and at least 50.1 µM in experiment [2].
The corresponding values for `Cc1nn(C)cc1CNC(=O)OCC1CCc2c(sc(NC(=O)/C=C/c3cccnc3)c2C#N)C1` (centres unmarked) [Example 54, (1,3-Dimethyl-1H-pyrazol-4-ylmethyl)-carbamic acid 3-cyano-2-((E)-3-pyridin-3-yl-allanoylamino)-4,5,6,7-tetrahydro-benzo[b]thiophen-6-ylmethyl ester] are at most 0.501 µM and at least 100 µM.
The corresponding values for `CCNC(=O)OC1CCc2c(sc(NC(=O)CCc3cccc(OC)c3)c2C#N)C1` (centres unmarked) [Example 248, Ethyl-carbamic acid 3-cyano-2-[3-(3-methoxy-phenyl)-propanoylamino]-4,5,6,7-tetrahydro-benzo[b]thiophen-6-yl ester] are at most 0.501 µM and at least 100 µM.
For `Cc1nn(C)cc1CNC(=O)OC1CCc2c(sc(NC(=O)/C=C/c3cccnc3)c2C#N)C1` (centres unmarked) [Example 57, (1,3-Dimethyl-1H-pyrazol-4-ylmethyl)-carbamic acid 3-cyano-2-((E)-3-pyridin-3-yl-allanoylamino)-4,5,6,7-tetrahydro-benzo[b]thiophen-6-yl ester], the IC50 in experiment [1] is at most 0.501 µM; in experiment [2] it was at least 100 µM.
The corresponding values for `CN(C(=O)OCC1CCc2c(sc(NC(=O)/C=C/c3cccnc3)c2C#N)C1)C1CCCC1` (centres unmarked) [Example 138, Cyclopentyl-methyl-carbamic acid 3-cyano-2-((E)-3-pyridin-3-yl-allanoylamino)-4,5,6,7-tetrahydro-benzo[b]thiophen-6-ylmethyl ester] are 0.501 to 2 µM and at least 100 µM.
On to `CCN(C)C(=O)OCC1CCc2c(sc(NC(=O)/C=C/c3cccnc3)c2C#N)C1` (centres unmarked) [Example 85, Ethyl-methyl-carbamic acid 3-cyano-2-((E)-3-pyridin-3-yl-allanoylamino)-4,5,6,7-tetrahydro-benzo[b]thiophen-6-ylmethyl ester], for which the IC50 in experiment [1] was at most 0.501 µM; in experiment [2], at least 100 µM.
The corresponding values for `Cc1ccncc1/C=C/C(=O)Nc1sc2c(c1C#N)CCC(COC(=O)N1CCC[C@@H](O)C1)C2` (stereo partly drawn) [Example 131, (R)-3-Hydroxy-piperidine-1-carboxylic acid 3-cyano-2-[(E)-3-(4-methyl-pyridin-3-yl)-allanoylamino]-4,5,6,7-tetrahydro-benzo[b]thiophen-6-ylmethyl ester] are at most 0.501 µM and at least 100 µM.
The corresponding values for `N#Cc1c(NC(=O)/C=C/c2cccnc2)sc2c1CCC(COC(=O)N1CCCCO1)C2` (centres unmarked) [Example 117, [1,2]Oxazinane-2-carboxylic acid 3-cyano-2-((E)-3-pyridin-3-yl-allanoylamino)-4,5,6,7-tetrahydro-benzo[b]thiophen-6-ylmethyl ester] are at most 0.501 µM and at least 100 µM.
The corresponding values for `Cc1cc(CNC(=O)OCC2CCc3c(sc(NC(=O)/C=C/c4cccnc4)c3C#N)C2)no1` (centres unmarked) [Example 47, (5-Methyl-isoxazol-3-ylmethyl)-carbamic acid 3-cyano-2-((E)-3-pyridin-3-yl-allanoylamino)-4,5,6,7-tetrahydro-benzo[b]thiophen-6-ylmethyl ester] are at most 0.501 µM and at least 100 µM.
Regarding `Cn1cncc1CNC(=O)OCC1CCc2c(sc(NC(=O)/C=C/c3cccnc3)c2C#N)C1` (centres unmarked) [Example 43, (3-Methyl-3H-imidazol-4-ylmethyl)-carbamic acid 3-cyano-2-((E)-3-pyridin-3-yl-allanoylamino)-4,5,6,7-tetrahydro-benzo[b]thiophen-6-ylmethyl ester], the IC50 in experiment [1] was at most 0.501 µM; in experiment [2], at least 100 µM.
With `N#Cc1c(NC(=O)/C=C/c2cccnc2)sc2c1CCC(OC(=O)NCC1CCCO1)C2` (centres unmarked) [Example 70, (Tetrahydro-furan-2-ylmethyl)-carbamic acid 3-cyano-2-((E)-3-pyridin-3-yl-allanoylamino)-4,5,6,7-tetrahydro-benzo[b]thiophen-6-yl ester], the IC50 was 0.501 to 2 µM in experiment [1] and at least 100 µM in experiment [2].
Consider `COc1cccc(CCC(=O)Nc2sc3c(c2C#N)CCC(OC(=O)Nc2cccnc2)C3)c1` (centres unmarked) [Example 264, Pyridin-3-yl-carbamic acid 3-cyano-2-[3-(3-methoxy-phenyl)-propanoylamino]-4,5,6,7-tetrahydro-benzo[b]thiophen-6-yl ester], for which the IC50 in experiment [1] was 0.501 to 2 µM; in experiment [2] it was at least 50.1 µM.
The corresponding values for `COCCNC(=O)OC1CCc2c(sc(NC(=O)/C=C/c3cccnc3)c2C#N)C1` (centres unmarked) [Example 18, (2-Methoxy-ethyl)-carbamic acid 3-cyano-2-((E)-3-pyridin-3-yl-allanoylamino)-4,5,6,7-tetrahydro-benzo[b]thiophen-6-yl ester] are 0.501 to 2 µM and at least 100 µM.
The corresponding values for `COc1cccc(CCC(=O)Nc2sc3c(c2C#N)CCC(OC(=O)OCc2cncs2)C3)c1` (centres unmarked) [Example 266, Carbonic acid 3-cyano-2-[3-(3-methoxy-phenyl)-propanoylamino]-4,5,6,7-tetrahydro-benzo[b]thiophen-6-yl ester thiazol-5-ylmethyl ester] are 0.501 to 2 µM and at least 50.1 µM.
The corresponding values for `N#Cc1c(NC(=O)/C=C/c2cccnc2)sc2c1CCC(COC(=O)NCc1nccs1)C2` (centres unmarked) [Example 65, Thiazol-2-ylmethyl-carbamic acid 3-cyano-2-((E)-3-pyridin-3-yl-allanoylamino)-4,5,6,7-tetrahydro-benzo[b]thiophen-6-ylmethyl ester] are 0.501 to 2 µM and at least 100 µM.
In the case of `CC(CC(=O)Nc1sc2c(c1C#N)CCC(OC(=O)N1CCCC1)C2)c1cccnc1` (centres unmarked) [Example 369, Pyrrolidine-1-carboxylic acid 3-cyano-2-(3-pyridin-3-yl-butanoylamino)-4,5,6,7-tetrahydro-benzo[b]thiophen-6-yl ester], the results for the IC50 in experiment [1] and in experiment [2] were 0.501 to 2 µM and at least 50.1 µM, respectively.
The corresponding values for `CCOc1ccccc1CCC(=O)Nc1sc2c(c1C#N)CCC(COC(=O)NCc1cccnc1)C2` (centres unmarked) [Example 175, Pyridin-3-ylmethyl-carbamic acid 3-cyano-2-[3-(2-ethoxy-phenyl)-propanoylamino]-4,5,6,7-tetrahydro-benzo[b]thiophen-6-ylmethyl ester] are at most 0.501 µM and at least 100 µM.
`CCOc1ccccc1CCC(=O)Nc1sc2c(c1C#N)CCC(COC(=O)N1CCCC1)C2` (centres unmarked) [Example 201, Pyrrolidine-1-carboxylic acid 3-cyano-2-[3-(2-ethoxy-phenyl)-propanoylamino]-4,5,6,7-tetrahydro-benzo[b]thiophen-6-ylmethyl ester]: the IC50 in experiment [1] is at most 0.501 µM; in experiment [2], at least 100 µM.
Turning to `CCOc1ccccc1CCC(=O)Nc1sc2c(c1C#N)CCC(OC(=O)NCc1csc(C)n1)C2` (centres unmarked) [Example 254, (2-Methyl-thiazol-4-ylmethyl)-carbamic acid 3-cyano-2-[3-(2-ethoxy-phenyl)-propanoylamino]-4,5,6,7-tetrahydro-benzo[b]thiophen-6-yl ester], the IC50 in experiment [1] is at most 0.501 µM; in experiment [2] it was at least 100 µM.
